Values joined by “and” are separate entries in the source; they are usually repeats but may differ in a detail not shown here. Equal values may be shown once. Read-outs that look alike come from different tables or passages of the source.
What was measured:
lipid peroxides = assay: Lipid peroxide sensor C11-BODIPY; format: cell-based, human; settings: LNCaP cells, vs vehicle
PARP cleavage = PARP cleavage in prostate cancer cell lines; format: cell-based, human
Protocol: (§1) Cell lysates were prepared either in 1× denaturing lysis buffer (Cell Signaling #9803) or non-denaturing lysis buffer (50 mM HEPES pH 7.4, 150 mM NaCl, 5 mM EDTA, 10% glycerol, 1% Nonidet P-40, and supplemented with phosphatase and protease inhibitors). For denaturing gels, lysates were mixed with Laemmli buffer containing β-mercaptoethanol, boiled for 5 mins and stored at −80° C. until use. Native lysates were mixed with native loading buffer (BioRad), and semi-native lysates were mixed with Laemmli buffer without beta-mercaptoethanol and stored at −80° C. without boiling. Native gels were resolved as described previously, Robitaille et al., 2016; denaturing and semi-native gels were resolved on 4-15% precast polyacrylamide gels (BioRad) followed by transfer to PVDF membrane. Membranes were blocked in 5% nonfat milk in wash buffer (Tris-buffered saline+0.1% Tween-20). After blocking, immunoblotting was performed with primary antibodies overnight at 4° C., followed by incubation with HRP-conjugated secondary antibodies for 1 h at room temperature. Blots were analyzed using the chemiluminescence method. Blots were developed using ECL Western blot detection reagent (GE Healthcare) for highly expressed proteins and Super Signal West Femto (Thermo Fisher) reagent for low expression proteins. Each experiment was repeated at least two to three times.

AR-V = AR-V expression in VCaP cells exposed to R1881 (FIG. 1B); format: cell-based, human; settings: 48-hr exposure
Excerpt: FIG. 1A and FIG. 1B show (FIG. 1A) Effect of synthetic androgen R1881 or bicalutamide on growth of ADT-resistant LNCaP and VCAP; (FIG. 1B) expression of full-length AR (AR-FL), AR-variants (AR-Vs) using antibody to AR N-terminal domain and AR-V& using AR-V7 specific antibody in the absence or presence of R1881;
Thelen et al., 2013. These AR-V expressing cells are profoundly growth inhibited by high dose levels of androgens, FIG. 1A.

LNCaP cells [1] = assay: Annexin-V positivity; format: cell-based, human
labile iron pool (Fe2+) = assay: Measurement of the labile iron pool; format: cell-based, human; settings: LNCaP cells, vs vehicle
Protocol: An iron assay kit (Sigma) was used to measure the labile iron pool in control and R1881 treated cells. LNCaP and LAPC4 cells were culture in a 100-mm tissue culture dish and were treated for […] before lysis in the buffer provided with the kit by snap freezing and thawing method. The lysate was cleared by centrifuging at 13000×g, and iron was measured by iron detection reagents supplied in the kit. Iron levels were calculated and normalized by the total protein present in the cell lysate. Levels of Fe^2+ were analyzed in SupraT treated cells and were normalized to vehicle control cells.

autophagy = assay: Autophagy induction in PCa cell lines; format: cell-based, human
Protocol: as §1
Cells were plated on 60-mm dishes to obtain 80% confluence on the next day. Cells were transfected with tandem mRFP-GFP fluorescent-tagged LC3 (ptfLC3) (Addgene #21074). 24 h post-transfection, cells were trypsinized and plated on sterile glass-bottom dishes at a 40-50% confluency and treated with androgens. Autophagosomes are labelled as green and red dual positive punctas and autolysosomes appear as red puncta as the green puncta is pH sensitive and quenched by the acidic lysosomal pH. Cells were then imaged using a live cell Zeiss LSM780-FCS Single-point, laser scanning confocal microscope. Images were processed using the ImageJ software. Cells with predominantly yellow RFP/GFP (autophagosome) or red RFP (autolysosome) punctae were counted and analyzed from at least twenty fields. Each experiment had images from at least five random fields and repeated three times.

cytoplasmic DNA = assay: Confocal microscopy of cytoplasmic DNA; format: cell-based, human; settings: combination of hydroxychloroquine and R1881
Protocol: Cells were grown on sterile coverslips in low density and were treated with R1881 (T) or vehicle control (C). After treatment, media was removed, and cells were fixed and permeabilized using chilled methanol for 10 min in deep-freezer followed by 10 min fixation in 10% natural buffered formalin at room temperature. Post-fixation, cells were blocked overnight in sterile-filtered 5% BSA in PBS at 4° C. Cells were incubated with a primary antibody, followed by a suitable fluorochrome tagged secondary antibody at 4° C. overnight. Both primary and secondary antibodies were diluted with 5% BSA in PBS. Cells were postfixed with 10% NBF for 2-3 min before mounting on a clean glass slide using Vectashield antifade mounting media (Vector Laboratories). Image acquisition was performed on the LSM 700 laser confocal microscope (Zeiss). Experiment was repeated at least three times and images from at least five random fields from each experiment were used for analysis. Images were analyzed using the image processing package Fiji.

CXCL10 = CXCL10 transcript and protein; format: cell-based, human; settings: LNCaP vs LAPC4 cells
Protocol: Total RNA was extracted from cells using Trizol reagent (Thermo Fisher) as per manufacturer's instructions. cDNA was synthesized from RNA by reverse transcription using SuperScript IV reverse (Thermo Fisher). Quantitative PCR was performed on samples mixed with SYBR master mix (BioRad) and gene-specific primers using a real-time thermocycler (BioRad). Data analysis was performed using the ΔΔCt method, and fold change (2^^−ΔΔ^Ct) was calculated after double normalization with the housekeeper gene and respective untreated control. Each PCR reaction was run in triplicates.
Cell lysates were prepared either in 1× denaturing lysis buffer (Cell Signaling #9803) or non-denaturing lysis buffer (50 mM HEPES pH 7.4, 150 mM NaCl, 5 mM EDTA, 10% glycerol, 1% Nonidet P-40, and supplemented with phosphatase and protease inhibitors). For denaturing gels, lysates were mixed with Laemmli buffer containing β-mercaptoethanol, boiled for 5 mins and stored at −80° C. until use. […] Blots were analyzed using the chemiluminescence method. […]
The concentration of 17 chemokines, cytokines, and growth factors in culture supernatants of control or R1881 treated LNCaP cells was determined using the Bioplex Pro Human Cytokine 17-plex assay system (Bio-Rad) according to manufacturer's protocol. […] Data was collected on the Bio-Rad BioPlex 200 instrument and analyzed using the Bio-Plex Manager (Bio-Rad Laboratory).

LNCaP cells [2] = settings: androgen-deprived LNCaP cells, high-dose DHT
LAPC4 cells = settings: androgen-deprived LAPC4 cells, high levels of DHT
NIK, p52, RELB = assay: Immunoblotting for non-canonical NF-kappaB pathway; format: cell-based, human
Protocol: For denaturing gels, lysates were mixed with Laemmli buffer containing β-mercaptoethanol, boiled for 5 mins and stored at −80° C. until use. Native lysates were mixed with native loading buffer (BioRad), and semi-native lysates were mixed with Laemmli buffer without beta-mercaptoethanol and stored at −80° C. without boiling. […] Membranes were blocked in 5% nonfat milk in wash buffer (Tris-buffered saline+0.1% Tween-20). After blocking, immunoblotting was performed with primary antibodies overnight at 4° C., followed by incubation with HRP-conjugated secondary antibodies for 1 h at room temperature. Blots were analyzed using the chemiluminescence method. Blots were developed using ECL Western blot detection reagent (GE Healthcare) for highly expressed proteins and Super Signal West Femto (Thermo Fisher) reagent for low expression proteins. Each experiment was repeated at least two to three times.

STING = STING dimerization assay (native western blot); format: cell-based, human; settings: LNCaP vs LAPC4 cells
Protocol: as §1

ferritin = assay: Ferritin level by western blot; format: cell-based, human; settings: LNCaP cells, supraphysiological levels
Protocol: as §1

CRPC [3] = settings: cited from earlier work
CRPC [4] = assay: RESTORE Phase II study (NCT02090114); format: in vivo, human; settings: re-challenge with the agent patients progressed on before BAT
Excerpt: The RESTORE study (NCT02090114) was an NIH sponsored Phase II study designed to assess the safety and efficacy of BAT in men (n=30 per cohort) with CRPC progressing on enzalutamide (Cohort A) or abiraterone (Cohort B), FIG. 6A. Shah et al., 2004. The primary endpoint of the first part of the study was to assess PSA response to BAT. Secondary endpoints included objective response, safety, and quality of life. The second part of the study was to determine in BAT could re-sensitize patients to repeat exposure to second line therapy that patients were progressing on prior to receiving BAT. Thus, patients progressing on enzalutamide were re-exposed to enzalutamide after BAT and similarly for abiraterone. Both arms of this study met the primary endpoint. PSA50 Response to BAT was 30% in patient's post-enzalutamide and 18% post-abiraterone, FIG. 6B. Shah et al., 2004. […] Overall duration of response to BAT and duration of response to re-exposure was longer in the post-enzalutamide vs. post-abiraterone cohort. The PSA50 response to re-exposure to enzalutamide was 71% vs. only 21% for patients re-exposed to abiraterone, FIG. 6B. Shah et al., 2004. A third cohort was later added (Cohort C) for men progressing on ADT alone. Overall, 90 men were treated on this study over a 4-year period (2014-2018).

[5] = test system: metastatic castration-resistant prostate cancer; settings: cited from earlier work
CRPC [6] = settings: post-docetaxel setting; cited from earlier work
[7] = test system: CRPC progressing on abiraterone; assay: TRANSFORMER randomized Phase II study (NCT02286921); format: in vivo, human; settings: for PSA50 response: patients crossing from BAT to enzalutamide
Protocol: The TRANSFORMER study (NCT02286921) was a DOD-sponsored randomized Phase II study designed to compare the efficacy of BAT vs. enzalutamide in asymptomatic men with CRPC progressing on abiraterone, FIG. 7A. The study was conducted at 17 academic centers across the U.S. The study was coordinated by the Prostate Cancer Disease Group clinical research team at Johns Hopkins, who performed regulatory oversight, study/site monitoring, and data analyses. From 2015-2018, 195 patients underwent 1:1 randomization to either standard dose enzalutamide (n=101) or BAT (n=94) at 400 mg IM every 28 days. The primary endpoint was clinical/radiographic PFS. At time of progression, patients were given the option to crossover to the alternate therapy. The trial was designed to show a 50% improvement in the primary endpoint for BAT vs. enzalutamide. […] Objective response was 24.4% for BAT and 4.2% for enzalutamide (p=0.067). Best PSA50 was 26.4% for BAT and 25.5% for enzalutamide (p=0.697).
At time of progression, 46 (49%) of patients on the […] crossed over to receive BAT and 34 (33.7%) crossed over from BAT to receive enzalutamide and were available for analysis.

CRPC [8] = settings: enzalutamide post-abiraterone, pre-chemotherapy setting; cited from earlier work
CRPC [9] = assay: Post hoc analysis of PSA response to subsequent hormonal therapies post-BAT (pilot study); format: in vivo, human
Protocol: As part of the aforementioned pilot study, a post hoc exploratory analysis on the effect of BAT on subsequent hormonal therapies was performed. […] All of the patients had received at least one anti-androgen prior to starting the study, Table 2. PSA response to secondary hormonal therapy after return to castrate T-levels post-BAT.

[10] = Enzalutamide Phase III (PREVAIL)
[11] = initial randomized arms, post-abiraterone

C[C@]1(O)CC[C@H]2[C@@H]3CCC4=CC(=O)CCC4=C3C=C[C@@]21C [R1881, 17α-methyl-19-nor-δ9,11-testosterone]
lipid peroxides (lipid peroxides): increased
PARP cleavage (PARP cleavage): none of the prostate cancer cell lines treated with synthetic androgen R1881 had any substantial enhancement of PARP cleavage
AR-V expression (AR-V): Complete loss of AR-V expression
Annexin-V positivity (LNCaP cells [1]): no significant increase in Annexin-V
labile iron pool (labile iron pool (Fe2+)): increased
basal autophagy (autophagy; LAPC4 and 22Rv1 cells): remained largely unaffected
autophagy (autophagy; LNCaP and VCaP cells): notably induces autophagy
cytoplasmic DNA (cytoplasmic DNA; LAPC4 cells): did not show any cytoplasmic DNA
cytoplasmic DNA (cytoplasmic DNA; LNCaP cells): marked localization of cytoplasmic DNA
cytoplasmic DNA (cytoplasmic DNA; VCaP cells): fewer cytoplasmic DNA puncta

C[C@]12CCC(=O)C[C@@H]1CC[C@@H]1[C@@H]2CC[C@]2(C)[C@@H](O)CC[C@@H]12 [DHT, dihydrotestosterone]
CXCL10 induction (CXCL10): able to induce CXCL10 (less robustly than R1881) preferentially in LNCaP cells
double strand break formation (γH2A.x foci) (LNCaP cells [2]): numerous γH2A.x foci
double strand breaks (γH2A.x foci) (LAPC4 cells): numerous double strand breaks throughout the nucleus
RelB and NIK stabilization (NIK, p52, RELB): led to stabilization of RelB and NIK
autophagy (autophagy; LAPC4 cells): but not in LAPC4 cells
autophagy (autophagy; LNCaP cells): robustly increased autophagy
STING and MAVS activation (STING): activated STING and MAVS preferentially in LNCaP cells, however, the activation was not as robust as R1881
ferritin levels (ferritin): decreased ferritin levels

CNC(=O)c1ccc(N2C(=S)N(c3ccc(C#N)c(C(F)(F)F)c3)C(=O)C2(C)C)cc1F [enzalutamide]
>50% decline PSA (%) (CRPC [3]; [10]): 78%
Objective Response (%) (CRPC [3]; [10]): 59%
PSA PFS (CRPC [3]; [10]): 11.2
TTP (m) (CRPC [3]; [10]): 20 m
hazard ratio, overall survival (CRPC [3]; enzalutamide vs placebo, 95% CI 0.60 to 0.84): 0.71
median overall survival (CRPC [3]; pre-chemotherapy setting, placebo 30.2 months): 32.4 months
PSA50 response to re-exposure post-BAT (CRPC [4]): 71%
PFS (median), clinical/radiographic ([5]; AR-V7-negative patients): 6.1 months
PSA response rate ([5]; AR-V7-negative patients): 52.6%
PSA-PFS (median) ([5]; AR-V7-negative patients): 5.9 months
PFS (median), clinical/radiographic ([5]; AR-V7-positive patients): 2.1 months
PSA response rate ([5]; AR-V7-positive patients): 0%
PSA-PFS (median) ([5]; AR-V7-positive patients): 1.4 months
improvement in survival (CRPC [6]): approximately 5 months
Objective response ([7]; enzalutamide post-BAT patients): 28.6%
Time to PSA progression ([7]; immediately post-abiraterone): 3.8 months
increase in time to PSA progression, post-BAT vs post-abiraterone ([7]; in vivo): ~3 fold
overall survival ([7]; in vivo): 28 months
Best PSA50 [7, 11]: 25.5%
Objective response [7, 11]: 4.2%
Best PSA50 ([7]; initial randomized arms, post-abiraterone, listed as Enza): 25%
clinical/radiographic PFS ([7]; initial randomized arms, p=0.2267): 5.72 m
PSA50 response [7]: 72.7%
PSA50 response ([7]; listed as Enza): 78%
Time to PSA progression ([7]; post-BAT): 10.9 months
Time to PSA progression ([7]; post-BAT, listed as Enza): 11 months
median rPFS (CRPC [8]): ≤ 6 months
patients with a PSA decline on second line therapy (CRPC [9]; after return to castrate testosterone levels post-BAT): 4/4
Maximum PSA decline upon secondary HT initiation (%) (CRPC [9]; per subject, secondary HT received post-study after return to castrate T-levels post-BAT): −30.4% and −99.5% and −78.3% and −53.2%
patients with >50% PSA decline on second line therapy (CRPC [9]; post-BAT): 3/4
PSA decline upon re-challenge (CRPC [9]; subjects who had previously progressed on the same agent): 53.2%
